≈ marks a conversion by molar mass, not a printed value. Entries after “also recorded” stand apart in the source; their conditions may differ.
Key:
[1] = cited from earlier work
[2] = Forced degradation studies (acidic, alkaline, oxidative stress at 60° C.), HPLC quantification; format: physicochemical
Protocol: (§1) For each unit, ataluren was quantified using the liquid chromatography method adapted from the method described by Kong et al.. Analyses were performed on a Thermo Scientific Ultimate 3000 chromatogram system (Villebon-sur-Yvette, France) including a quaternary pump (LPG 3400A), an automatic sampler (WPS 3000TSL), a diode array detector (DAD 300016) with 5 cm flow cell, and the associated software used to record and interpret chromatograms (Chromeleon®, Version 8.0). The stationary phase consisted in a Kinetex® C18 column (250×4.6 mm; 5 μm, Phenomenex, Le Pecq, France). The mobile phase was a gradient mixture of 0.1% formic acid (A) and acetonitrile (B). The flow rate was maintained at 1 mL/min, and the gradient profile was as follows: t0-11 min: A=30% B=70%; t11-15 min A=70% B=30%. The injection volume was 50 μL. The drug absorbance for quantification was obtained at 276 nm.
[…] To mimic the potential photodegradation occurring prior or after drug administration, photolytic studies were carried out by exposing the drug solutions to direct UV-visible light with and without photocatalyst or photosensitizer (i.e. titanium oxide 1 g L-1, riboflavin 100 mg L-1). Photolysis experiments were performed using a QSUN-XE-1 (Q-Lab, Bolton, United Kingdom) light chamber equipped with a xenon lamp, which simulates natural sunlight in a wavelength range of 300-800 nm. […]

[3] = Photolysis under simulated sunlight, with and without photocatalyst or photosensitizer; format: physicochemical; settings: for % remaining: Direct photolysis, visible ~119,600 lx, UVA 300-400 nm 66.5 W m^−2; for degradation in direct photolytic stress condition: direct light exposure
Protocol: as §1
The specificity was assessed by subjecting the ataluren 1% solubilized in DMSO (10%) and castor oil solutions to various forced degradation conditions: 0.1M hydrochloric acid (HCl), 0.1M sodium hydroxide (NaOH), 0.3% and 15% hydrogen peroxide (H2O2) for 24 h, 48 h, and 72 h at 60° C. To mimic the potential photodegradation occurring prior or after drug administration, photolytic studies were carried out by exposing the drug solutions to direct UV-visible light with and without photocatalyst or photosensitizer (i.e. titanium oxide 1 g L-1, riboflavin 100 mg L-1). Photolysis experiments were performed using a QSUN-XE-1 (Q-Lab, Bolton, United Kingdom) light chamber equipped with a xenon lamp, which simulates natural sunlight in a wavelength range of 300-800 nm. A Daylight-Q filter was used to simulate CIE Standard Illuminant D65 (Q-Lab) and irradiance was maintained constant (1.5 W m-2 at 420 nm). The measurements corresponded to a visible intensity of ˜119,600 1×, and a UVA intensity at 300-400 nm of 66.5 W m-2. For all the experiments the temperature was controlled and set at 25±0.5° C.

[4] = ophthalmic application, DMSO in association with dilute povidone-iodine; cited from earlier work

Structure (SMILES)	solubility ([1]; 1:1 solution of DMSO: PBS pH 7.2)	solubility in aqueous buffers ([1]; aqueous buffers)	solubility in organic solvents ([1]; organic solvents such as dimethyl sulfoxide (DMSO))	solubility in water ([1]; water)	appearance of degradation products ([2]; 15% hydrogen peroxide exposure)	degradation under stress ([2]; strong acidic, basic or 0.3% H2O2 conditions, after 7 days exposure)	% remaining ([3]; 30 min exposition)	% remaining ([3]; 60 min exposition)	% remaining ([3]; 180 min exposition)	% remaining ([3]; 360 min exposition)	degradation in direct photolytic stress condition [3]	degradation in direct photolytic stress condition ([3]; listed as Ataluren)	degradation under light with photocatalyst ([3]; in presence of photocatalyst agent (titanium oxide))	degradation under light with photosensitizer ([3]; in the presence of riboflavin)	patients with mild irritation (stinging, tingling or burning at the application), without serious adverse effects [4]
O=C(O)c1cccc(-c2noc(-c3ccccc3F)n2)c1 [ataluren, 3-(5-(2-fluorophenyl)-1,2,4-oxadiazol-3-yl)benzoic acid]	~500 µg/mL (≈ 1760 µM)	sparingly soluble	soluble	very slightly soluble	Degradation products appeared	not degraded	100.1%	102.4%	100.1%	103.4%	not degraded	did not decrease	rapidly degraded; also recorded: decreased	This was not the case; also recorded: no degradation was observed	
C[S+](C)[O-] [DMSO, dimethylsulfoxyde]															11.8%
